EP4475229A1, “QUINONE-TYPE MOLECULES FOR ZINC-ION AQUEOUS BATTERIES” (Centre National de la Recherche Scientifique, priority 2023, dated 2024)
≈ marks a conversion by molar mass, not a printed value. Like-named read-outs stand apart in the source and are kept apart here. Blank lines part the entries; values can stand above or below the molecule they belong to.

Legend:
[1] = cited from earlier work
[2] = Solubility of literature quinones in aqueous electrolytes, reported or estimated from references
[3] = for saturation limit in comparison with compound 2 (2,5 DTBHQ) / saturation limit: 1 week at room temperature; for saturation limit: argon
physchem = details: water
[4] = 1.25 M Zn(CH3COO)2, pH 4-5, 10080 min

Structure (SMILES): Oc1ccc(O)cc1 [1,4-benzohydroquinone]
solubility in water compared with 1,4-benzoquinone ([1]; water, background statement): six times more soluble

Solubility factor vs. 2,5 DTBHQ ([2]; 2M ZnSO4, pH 4-5, ref [4]): >11
Solubility factor vs. 2,5 DTBHQ ([2]; 2.5M Li2SO4, pH 7, ref [5]): > 10000
Solubility reduced state ([2]; 4.4M H2SO4, pH 0, ref [5], presumed): Presumed Not soluble
maximum solubility relative to compound 2 (2,5 DTBHQ) ([2]; estimated from ref [4], reduced state): approx. 11 times
Structure (SMILES): O=c1c(=O)c2cccc3c2-c2c1cccc2c(=O)c3=O [PTO]
Solubility oxidized state ([1]; 2.5M Li2SO4, pH 7, ref [5]): Soluble (Fig. S21)
Solubility oxidized state ([1]; 4.4M H2SO4, pH 0, ref [5]): 0.0047 (Fig. S18) mmol/L

Solubility factor vs. 2,5 DTBHQ ([2]; 1M ZnSO4, pH 4-5, ref [1]): ~100
Structure (SMILES): NC1=C(N)C(=O)C(N)=C(N)C1=O [TABQ]
Solubility oxidized state ([1]; 1M ZnSO4, pH 4-5, ref [1]): 1.7 mmol/L (≈ 286 µg/mL)

Solubility factor vs. 2,5 DTBHQ ([2]; 1M ZnSO4, pH 4-5, ref [1]): ~100
Structure (SMILES): O=C1C(O)=C(O)C(=O)C(O)=C1O [THBQ]
Solubility oxidized state ([1]; 1M ZnSO4, pH 4-5, ref [1]): 3.4 mmol/L (≈ 585 µg/mL)

Structure (SMILES): CC(C)(C)C1=CC(=O)C(C(C)(C)C)=CC1=O [compound 1]
Solubility oxidized state [3, 4]: 26 µM (≈ 5.73 µg/mL)
Solubility reduced state [3, 4]: 204 µM (≈ 44.9 µg/mL)
saturation limit in comparison with compound 2 (2,5 DTBHQ) ([3]; acetate electrolytes): nearly ten times lower
saturation limit ([3]; acetic acid/potassium acetate pH 4.8, acetic acid/zinc acetate pH 4.5, zinc acetate 1.25 M pH 4.2): 26.16 µmol/L
solubility thermodynamic at 1 week (physchem): 5.7 µg/mL (≈ 25.9 µM)

Structure (SMILES): CC(C)(C)c1cc(O)ccc1O [compound 8]
Solubility reduced state [3, 4]: 20400 µM (≈ 3390 µg/mL)
saturation limit in comparison with compound 2 (2,5 DTBHQ) ([3]; acetate electrolytes): ~100 times
saturation limit ([3]; acetate electrolytes): 20.4 mM/L

Structure (SMILES): O=C1C(=O)C(Cl)=C(Cl)C(Cl)=C1Cl [o-TCBQ]
Solubility oxidized state ([1]; 1M ZnSO4, pH 4-5, ref [1]): 2.3 mmol/L (≈ 566 µg/mL)
Solubility factor vs. 2,5 DTBHQ ([2]; 1M ZnSO4, pH 4-5, ref [1]): ~100

Structure (SMILES): O=C1C(Cl)=C(Cl)C(=O)C(Cl)=C1Cl [p-TCBQ]
Solubility oxidized state ([3]; pH 7): Slightly soluble
